This note sets out measurements from ChEMBL document CHEMBL1201862, “PubChem BioAssay data set” (2004).

What is called EC50 is the concentration needed to bring the measured effect to its halfway point. A word on the IC50: it is the concentration that gives 50% inhibition. A word on the AC50: it is the concentration giving half of the maximal activity seen.

In data set [1] the target is T1, RNA-binding protein pos-1 (Caenorhabditis elegans, UniProt G5EF15).
T1 sequence (G5EF15 whole entry): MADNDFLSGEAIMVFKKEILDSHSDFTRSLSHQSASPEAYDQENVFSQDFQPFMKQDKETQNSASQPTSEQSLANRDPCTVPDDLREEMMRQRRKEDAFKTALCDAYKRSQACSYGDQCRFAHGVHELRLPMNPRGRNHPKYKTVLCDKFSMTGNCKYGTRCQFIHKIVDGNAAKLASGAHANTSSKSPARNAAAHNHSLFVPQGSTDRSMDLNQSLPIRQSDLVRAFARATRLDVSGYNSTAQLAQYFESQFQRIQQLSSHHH
Put plainly: disruptors of C. elegans POS-1 RNA interaction – biochemical, fluorescence polarization, dose response (AID 1964).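 Further: purified POS-1 fused to maltose binding protein made in E. coli; potency of compounds blocking POS-1 binding to fluorescent RNA.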

Data set [2] deals with Streptococcus sp. 'group A'. The experiment in a line: Streptococcus pyogenes SK(-)GAS viability under kanamycin – luminescence, BacTiterGlo, confirmation, counter-screen for streptokinase expression inhibitor project, dose response (AID 1900). It is filed as functional, organism-based. A general note: Counterscreens check selectivity or assay interference.
Data set [3] deals with T2, Zinc finger protein mex-5 (Caenorhabditis elegans, UniProt Q9XUB2).
T2 sequence (Q9XUB2 whole entry): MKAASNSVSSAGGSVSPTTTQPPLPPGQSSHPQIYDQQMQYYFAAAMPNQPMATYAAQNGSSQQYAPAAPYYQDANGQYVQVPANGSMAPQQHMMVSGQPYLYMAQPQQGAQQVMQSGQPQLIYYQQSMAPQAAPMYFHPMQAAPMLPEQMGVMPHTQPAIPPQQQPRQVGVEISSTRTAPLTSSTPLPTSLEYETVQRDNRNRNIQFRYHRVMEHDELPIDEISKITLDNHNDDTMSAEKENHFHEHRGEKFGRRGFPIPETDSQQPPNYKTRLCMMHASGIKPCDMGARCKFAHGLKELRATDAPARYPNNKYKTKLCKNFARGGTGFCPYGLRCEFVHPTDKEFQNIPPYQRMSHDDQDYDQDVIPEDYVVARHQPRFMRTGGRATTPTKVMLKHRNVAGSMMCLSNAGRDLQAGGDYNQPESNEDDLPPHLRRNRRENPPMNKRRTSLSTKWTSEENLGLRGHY
Put plainly: potency of MEX-5 RNA-binding blockers – biochemical, C. elegans, fluorescence polarization, dose response (AID 1960). A general note: In fluorescence polarisation assays a small probe gives low polarisation when free and higher when bound to something large.

The target of data set [4] is T3, Streptokinase A (Streptococcus pyogenes serotype M1, UniProt P10520).
T3 sequence (P10520 whole entry): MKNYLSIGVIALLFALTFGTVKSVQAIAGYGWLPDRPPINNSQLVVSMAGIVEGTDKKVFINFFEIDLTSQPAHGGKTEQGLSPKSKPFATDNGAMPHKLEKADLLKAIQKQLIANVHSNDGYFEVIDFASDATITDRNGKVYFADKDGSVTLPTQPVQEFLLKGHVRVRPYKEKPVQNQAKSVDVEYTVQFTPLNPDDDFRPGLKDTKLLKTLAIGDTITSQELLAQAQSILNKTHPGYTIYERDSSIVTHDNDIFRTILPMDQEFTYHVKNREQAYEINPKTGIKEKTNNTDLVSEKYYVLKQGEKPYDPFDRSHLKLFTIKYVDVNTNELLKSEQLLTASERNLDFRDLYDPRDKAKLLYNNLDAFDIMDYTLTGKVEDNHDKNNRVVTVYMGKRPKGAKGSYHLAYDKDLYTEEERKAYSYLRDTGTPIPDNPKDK
The experiment in a line: viability-normalized secreted streptokinase activity reduction – plasminogen activation absorbance, OD405, dose response (AID 1914).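 Further: secreted streptokinase activity via plasminogen activation per viability signal from cell pellet.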 Format: functional, Streptococcus pyogenes M1 GAS.

For data set [5], the target named is Large T antigen (Simian virus 40, UniProt P03070). It is filed as functional, Betapolyomavirus macacae.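 Further: Confirmatory-stage PubChem screen for compounds that inhibit SV40 T antigen.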
Data set [6] in a line: microbe, parasite or virus in culture. As to conditions: Mycobacterium tuberculosis. Format: functional.
The test system of data set [7] is Streptococcus. The experiment in a line: GAS UMAA2166 growth inhibition – luminescence, BacTiterGlo, counter-screen for streptokinase expression inhibitor project, dose response (AID 1915).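 Further: potency for reduction of bacterial viability or growth.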 It is filed as functional, organism-based.
The nature of data set [8]: Luminescence Cell-Based Dose Confirmation HTS to Identify Activators of 5'UTR Stem-Loop Driven Alpha-Synuclein mRNA Translation in H4 Neuroglioblastoma Cells. [Related pubchem assays: 1829 (Project Summary), 1814 (Primary HTS)]. It is filed as functional.
Data set [9] can be described thus: Luminescence Cell-Based Dose Response HTS to Identify Activators of Luciferase Translation or Activity in H4 […] Cells. [Related pubchem assays: 1829 (Project Summary), 1814 (Primary HTS)]. It is filed as functional.
For data set [10], the system named is H4. Put plainly: Luminescence Cell-Based Dose Response HTS to Identify Activators of 5'UTR Stem-Loop Driven Prion Protein mRNA Translation in H4 Neuroglioblastoma Cells. [Related pubchem assays: 1829 (Project Summary), 1814 (Primary HTS)]. Format: functional. The note with it: Homo sapiens.
A short description of data set [11]: Dd2 parasite growth inhibition in erythrocytes – SYBR Green, dry powder samples, set 9, dose response (AID 1159568). It is filed as functional, cell-based.
The test system of data set [12] is BJ. Put plainly: BJ-TERT fibroblast viability loss – cell-based, RAS-independent, luminescence, dose response (AID 1933). Format: functional. The note with it: Homo sapiens.
Data set [13] has as its system BJ. Put plainly: cells. It is filed as functional, cell-based. As to conditions: Homo sapiens.
The test system of data set [14] is BJ. The experiment in a line: BJ-TERT-LT-ST fibroblast viability loss – cell-based, RAS-independent, luminescence, dose response (AID 1935).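 Further: BJ fibroblasts immortalized with TERT plus LT and ST oncogenes.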 Format: functional. As to conditions: Homo sapiens.
Data set [15] is described as follows: DRD fibroblast viability loss – cell-based, non-viral oncogenic, luminescence, dose response (AID 1934). It is filed as functional. As to conditions: Homo sapiens.
Data set [16] deals with Cytochrome P450 2D6 (Homo sapiens, UniProt P10635).
Data set [17] has as its target Cytochrome P450 2C9 (Homo sapiens, UniProt P11712).
Data set [18] deals with Cytochrome P450 3A4 (Homo sapiens, UniProt P08684).

Activity calls are given as the source filed them. For most assays here, no stated cut-off is given here; in the data, actives have a measured EC50 and inactives only a lower limit.

Chain of Cytochrome P450 2C9 (P11712 whole entry): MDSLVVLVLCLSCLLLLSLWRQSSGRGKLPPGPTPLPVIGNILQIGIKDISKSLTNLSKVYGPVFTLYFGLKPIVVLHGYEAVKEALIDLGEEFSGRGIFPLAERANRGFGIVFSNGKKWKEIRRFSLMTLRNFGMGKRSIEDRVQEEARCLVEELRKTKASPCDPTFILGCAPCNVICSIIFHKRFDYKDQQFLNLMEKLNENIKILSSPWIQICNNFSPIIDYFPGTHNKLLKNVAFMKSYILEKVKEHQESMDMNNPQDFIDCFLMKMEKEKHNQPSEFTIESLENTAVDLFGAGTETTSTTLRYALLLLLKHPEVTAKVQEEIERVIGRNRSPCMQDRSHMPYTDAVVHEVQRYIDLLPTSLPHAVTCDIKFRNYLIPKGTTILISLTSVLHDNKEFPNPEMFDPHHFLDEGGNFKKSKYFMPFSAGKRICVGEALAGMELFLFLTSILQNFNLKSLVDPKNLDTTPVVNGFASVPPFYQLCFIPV
Chain of Large T antigen (P03070 whole entry): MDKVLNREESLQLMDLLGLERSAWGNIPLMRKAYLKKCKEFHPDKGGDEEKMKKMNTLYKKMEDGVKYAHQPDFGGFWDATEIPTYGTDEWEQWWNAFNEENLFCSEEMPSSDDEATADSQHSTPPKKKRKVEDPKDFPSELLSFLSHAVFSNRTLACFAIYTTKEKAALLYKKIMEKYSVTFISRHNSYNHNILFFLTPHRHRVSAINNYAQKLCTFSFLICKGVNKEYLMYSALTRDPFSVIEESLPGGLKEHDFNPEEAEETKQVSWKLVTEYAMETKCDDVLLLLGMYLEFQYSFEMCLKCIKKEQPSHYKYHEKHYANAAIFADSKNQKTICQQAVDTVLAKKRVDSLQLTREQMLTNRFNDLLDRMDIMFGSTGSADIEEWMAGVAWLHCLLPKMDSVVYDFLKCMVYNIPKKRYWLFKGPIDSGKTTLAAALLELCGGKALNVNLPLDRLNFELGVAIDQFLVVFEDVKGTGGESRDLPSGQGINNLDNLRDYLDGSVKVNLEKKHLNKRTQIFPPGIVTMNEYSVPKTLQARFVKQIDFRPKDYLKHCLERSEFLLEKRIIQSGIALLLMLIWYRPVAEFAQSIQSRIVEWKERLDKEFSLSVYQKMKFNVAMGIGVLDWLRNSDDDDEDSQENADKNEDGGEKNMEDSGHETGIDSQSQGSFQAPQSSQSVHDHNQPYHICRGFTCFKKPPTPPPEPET
Chain of Cytochrome P450 2D6 (P10635 whole entry): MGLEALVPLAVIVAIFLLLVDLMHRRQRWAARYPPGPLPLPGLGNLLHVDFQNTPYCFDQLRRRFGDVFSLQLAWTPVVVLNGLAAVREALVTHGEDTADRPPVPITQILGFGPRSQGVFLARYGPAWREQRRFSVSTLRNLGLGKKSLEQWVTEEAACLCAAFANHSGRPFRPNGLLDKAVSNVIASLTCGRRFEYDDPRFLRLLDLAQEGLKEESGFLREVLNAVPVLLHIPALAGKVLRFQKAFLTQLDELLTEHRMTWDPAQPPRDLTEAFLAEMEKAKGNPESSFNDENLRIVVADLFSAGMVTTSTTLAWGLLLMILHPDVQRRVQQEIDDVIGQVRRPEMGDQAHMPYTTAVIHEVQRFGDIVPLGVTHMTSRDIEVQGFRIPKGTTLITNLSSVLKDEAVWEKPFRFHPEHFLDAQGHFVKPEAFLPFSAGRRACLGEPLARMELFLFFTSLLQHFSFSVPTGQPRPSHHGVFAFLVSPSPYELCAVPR
Chain of Cytochrome P450 3A4 (P08684 whole entry): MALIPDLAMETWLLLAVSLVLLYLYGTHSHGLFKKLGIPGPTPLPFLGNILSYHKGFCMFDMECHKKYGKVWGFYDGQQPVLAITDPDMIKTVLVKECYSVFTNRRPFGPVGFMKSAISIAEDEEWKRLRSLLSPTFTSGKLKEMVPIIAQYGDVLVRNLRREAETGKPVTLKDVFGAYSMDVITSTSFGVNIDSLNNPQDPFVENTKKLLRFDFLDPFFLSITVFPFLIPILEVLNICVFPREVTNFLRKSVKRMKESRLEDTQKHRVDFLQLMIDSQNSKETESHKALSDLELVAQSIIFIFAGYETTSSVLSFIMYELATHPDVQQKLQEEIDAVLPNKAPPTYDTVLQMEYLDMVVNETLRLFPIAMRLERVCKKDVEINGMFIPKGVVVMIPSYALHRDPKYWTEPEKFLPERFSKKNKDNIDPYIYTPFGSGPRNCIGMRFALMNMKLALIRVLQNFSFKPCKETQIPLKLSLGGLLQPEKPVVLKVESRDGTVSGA

With `N=C(N)N/N=C1C=C/C(=N\NC(N)=S)C=C\1` [AMBAZONE], the EC50 in data set [1] was 76.5 µM (active); in data set [2], < 0.06 µM (active); in [3], 9.73 µM (active); in data set [4], > 150 µM (not active); in data set [7], 0.35 µM (active). For the same compound, the IC50 in data set [5] was 13.7 µM (active). In addition, the CC50 in data set [6] is > 40 µM (active).

As for `CC(=O)Nc1cccc(Oc2nc(-c3ccccn3)nc3ccccc23)c1`, the EC50 in [1] is 79.3 µM (active); in data set [8], 92.7 µM (active); in data set [9] it was 11.8 µM (active); in data set [10], 7.56 µM (active); in data set [3], 5.2 µM (active).

Turning to `C[C@@H]1CN([C@@H](C)CO)C(=O)c2ccccc2-c2ccccc2CO[C@@H]1CN(C)S(=O)(=O)Cc1ccccc1`, the AC50 in [11] is 21.9 µM (active).

Take `C/N=C1\S/C(=C\c2cn(CC(=O)OC)c3ccccc23)C(=O)N1C`: the EC50 in data set [1] and in data set [3] was > 300 µM (not active) each time.

Consider `O=C(Cc1ccccn1)N1CC2(C1)[C@H](c1ccccc1)[C@H](CO)N2C(=O)c1ccncc1`, for which, in [11], the AC50 is 30 µM (active).

For the compound `CCOC(=O)c1cc2c(=O)n3ccccc3nc2n(C(C)C)/c1=N\C(=O)c1ccncc1`, the EC50 in data set [1] and in data set [3] was > 300 µM (not active) throughout.

Take `C[C@H](CO)N1C[C@H](C)[C@H](CN(C)S(=O)(=O)c2ccccc2)OCCCC[C@H](C)Oc2ccc(NC(=O)Nc3ccc4c(c3)OCO4)cc2C1=O`: in data set [11], the AC50 is 8.9 µM (active).

As to `O=C(O)c1ccc(-n2cccc2)cc1O`, the EC50 in data set [1] and in data set [3] was > 300 µM (not active) in each case.

Consider `Cc1ccc(C(=O)c2cc3ccccc3o2)cc1[N+](=O)[O-]`, for which the EC50 in data set [12] is > 150 µM (not active); in [13], > 150 µM (not active); in [14], > 150 µM (inconclusive); in data set [15], > 150 µM (not active).

With `CCC(=O)c1ccc(OCC(=O)Nc2ccccc2N2CCCCC2)cc1`, the EC50 is > 150 µM (not active) in data set [12], 35.6 µM (active) in data set [13], > 150 µM (not active) in [14] and > 150 µM (not active) in data set [15].

Regarding `COc1cc(C(=O)c2cocc2C(=O)c2ccc3c(c2)OCO3)cc(OC)c1OC`, the EC50 in data set [12] was 2.71 µM (active); in data set [13], 38.6 µM (inconclusive); in [14], 2.57 µM (inconclusive); in data set [15], 1.45 µM (active).

In the case of `Cn1c(=O)c2cc(S(=O)(=O)NCCC(=O)NCc3ccccc3Cl)ccc2n(C)c1=O`, the AC50 in data set [16] is 17.8 µM (inconclusive); in data set [17], “inconclusive”.

`COc1ccc2c3c([nH]c2c1)[C@H](CO)N(C(C)=O)CC31CCN(C(=O)Nc2ccc(F)cc2F)CC1`: the AC50 in [11] is 0.548 µM (active).

For the compound `CC1=NN(C(N)=S)C(=O)C1N=Nc1ccc(S(N)(=O)=O)cc1` (stereo unspecified), the EC50 in [1] is 19.7 µM (active); in data set [3], 8.86 µM (active).

As to `C[C@@H]1CCCCO[C@@H](CN(C)S(=O)(=O)c2ccc(F)cc2)[C@H](C)CN([C@@H](C)CO)C(=O)c2cc(N(C)C)ccc2O1`, in data set [11], the AC50 is 7.31 µM (active).

Consider `O=C(CN1C(=O)c2ccccc2C1=O)NCC(=O)OCC(=O)c1ccc(Br)cc1`, for which the AC50 in data set [18] was 3.55 µM (inconclusive); in data set [17] it was “inconclusive”.
